Source: patent US20240180158A1, “COMPOUNDS HAVING SELECTIVE INACTIVATION ACTIVITY” (University of North Carolina at Wilmington, priority 2021, published 2024)

Key:
[1] = system: C. albicans; assay: Disk diffusion assay, C. albicans; assay type: cell-based; settings: aromatic compounds
Method: (§1) The following disk diffusion assays were performed with example compounds described above to assess the ability of compounds to inhibit growth of microorganism. A compound that inhibits its target enzyme may perform poorly for a number of reasons, including low solubility in water or slow rate of transport across a microbial membrane.

[2] = target: T1, ASADH from Candida albicans (CalASADH) (Candida albicans, UniProt Q5ALM0); assay: Time-dependent inactivation of CalASADH (pre-incubation, residual activity); assay type: biochemical
T1 construct: His tag; made in house
T1 sequence (Q5ALM0 1-365): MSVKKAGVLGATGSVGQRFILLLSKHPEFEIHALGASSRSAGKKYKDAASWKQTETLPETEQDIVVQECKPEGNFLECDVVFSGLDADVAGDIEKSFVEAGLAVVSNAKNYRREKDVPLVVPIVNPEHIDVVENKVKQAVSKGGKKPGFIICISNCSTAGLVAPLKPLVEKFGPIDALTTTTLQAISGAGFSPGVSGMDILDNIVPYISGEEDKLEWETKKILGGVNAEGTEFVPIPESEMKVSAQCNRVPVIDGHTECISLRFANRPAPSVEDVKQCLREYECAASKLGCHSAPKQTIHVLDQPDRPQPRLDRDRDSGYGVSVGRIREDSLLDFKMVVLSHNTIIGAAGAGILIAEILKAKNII
Method: Aryl vinyl sulfones can be reasonably potent inhibitors of CalASADH, each inhibitor was then tested to determine if it would function as an enzyme inactivator. […] In most cases the residual enzyme activity, measured following a subsequent 20-fold dilution into an assay mixture, decreased to less than 5% of the control rate after incubation with low micromolar levels of these inactivators for 10 min or less. To determine the rate of inactivation the concentration of each vinyl sulfone in this pre-incubation mixture was then varied, centered around their initial measured Ki values. The rate of activity loss observed in each incubation reaction (kobs) was plotted against the inhibitor concentration to determine the inactivation rate (kinact) for that compound and the concentration that produces half-maximal inactivation (Ki). […] The proposed product of the reaction of the active site nucleophile (Cys-156) with this inactivator predicts key interactions of the p-nitro group with Arg-18 and Ser-187, and the protonation of the covalent intermediate by His-256. […] Reaction of this inactivator with the active site nucleophile (Cys-156) predicts keys interactions between its carboxyl group and several backbone amide nitrogens that would shift this adduct further from the active site base (His-256). […]

[3] = system: C. albicans cells; assay: C. albicans cell survival after exposure to inactivator; assay type: cell-based, Candida albicans; settings: 1 h exposure; for cell survival rate, in words: several concentrations, survival after 48 h
Method: According to some embodiments, vinyl sulfone compounds contain both polar and, in some cases, charged functional groups that would make cellular uptake more challenging. However, to test the possibility that these compounds could inhibit the growth of C. albicans, two inactivators were selected for examination. […] The cells were plated and their survival rates were measured after 48 h relative to a control growth in the absence of inactivator.

[4] = system: S. aureus; assay: Disk diffusion assay, S. aureus; assay type: cell-based; settings: aromatic compounds
Method: as §1

[5] = system: K pneumoniae; assay: Disk diffusion assay, K pneumoniae; assay type: cell-based; settings: aromatic compounds
Method: as §1

Row | Structure (SMILES) | disk diffusion, C. albicans [1] | ASADH inactivation, in words [2] | cell survival ([3]; 25 μM, survival after 48 h relative to control) | cell survival rate, in words [3] | disk diffusion, S. aureus [4] | disk diffusion, K pneumoniae [5]
1 | CS(=O)(=O)/C=C/c1ccc2ccccc2n1 [2-MSV-quinoline, 2-(S-methylsulfonylvinyl)quinoline] | weak | – | – | – | – | –
2 | CS(=O)(=O)/C=C/c1ccc(C(=O)O)cc1 [4-(methylsulfonylvinyl)benzoic acid] | – | very good ASADH inactivator | less than 75% | some decrease in cell survival rate | – | –
3 | O=S(=O)(/C=C/c1ccncc1)c1ccccc1 [4-(phenylsulfonylvinyl)pyridine] | – | moderate inactivator | – | some decrease in cell survival rate | – | –
4 | CS(=O)(=O)/C=C/c1ccncc1 [4-MSV-pyridine, 4-(methylsulfonylvinyl)pyridine] | medium | – | – | – | medium | medium
